Patent US20140120232A1, “ACID TASTE/ACID SMELL-REDUCING AGENT” (T. HASEGAWA CO., LTD., priority 2011, published 2014)

Assay: Sensory evaluation of Vermont drink containing the agent
Settings: ten panels
Method: Water was added to a mixture of 10 g of apple-cider vinegar (acetic acid: 4.8%), 3 g of honey, 7 g of fructose-glucose liquid sugar mixed with sugar, 0.02 g of citric acid, 0.002 g of trisodium citrate, and 0.1 g of a Vermont flavor (manufactured by T. Hasegawa Co., Ltd.) to give a total amount of 100 mL. To the resulting mixture was added (Z,Z)-4,7-tridecadienal as the acid taste and/or acid smell-reducing agent of the present invention in concentrations shown in the following Table 1 to give Vermont drinks containing the agent.
Sensory evaluation of each drink was carried out by ten panels. […] The piercing aroma characteristic to aldehydes is a characteristic aroma common to every aldehyde and refers to an irritant off-smell giving an image of deteriorated oils and fats, soap, metals, Houttuynia cordata, etc. The judgment of smell was performed by comparing the effects at different concentrations of the acid taste and/or acid smell-reducing agent, and a concentration giving the highest acid taste/acid smell quality was selected. […]

CCCCC/C=C/C/C=C/C=C/C=O [(E,E,E)-2,4,7-tridecatrienal]
0: B: number of panels, acid taste/acid smell slightly strong and slightly cause irritation (0.005 ppt) | C: number of panels, acid taste/acid smell slightly unpleasant (0.005 ppt) | Flavor judgment: number of panels who judged acid taste/acid smell quality the highest (0.005 ppt) | N: number of panels, irritation of acid reduced to give a mild acid taste (0.005 ppt) | X: number of panels, acid taste reduced but piercing odor characteristic to aldehydes unpleasant (0.005 ppt) | B: number of panels, acid taste/acid smell slightly strong and slightly cause irritation (0.02 ppt) | C: number of panels, acid taste/acid smell slightly unpleasant (0.02 ppt) | Flavor judgment: number of panels who judged acid taste/acid smell quality the highest (0.02 ppt) | N: number of panels, irritation of acid reduced to give a mild acid taste (0.02 ppt) | X: number of panels, acid taste reduced but piercing odor characteristic to aldehydes unpleasant (0.02 ppt) | B: number of panels, acid taste/acid smell slightly strong and slightly cause irritation (0.1 ppt) | C: number of panels, acid taste/acid smell slightly unpleasant (0.1 ppt) | Flavor judgment: number of panels who judged acid taste/acid smell quality the highest (0.1 ppt) | N: number of panels, irritation of acid reduced to give a mild acid taste (0.1 ppt) | X: number of panels, acid taste reduced but piercing odor characteristic to aldehydes unpleasant (0.1 ppt) | C: number of panels, acid taste/acid smell slightly unpleasant (0.2 ppt) | Flavor judgment: number of panels who judged acid taste/acid smell quality the highest (0.2 ppt) | N: number of panels, irritation of acid reduced to give a mild acid taste (0.2 ppt) | X: number of panels, acid taste reduced but piercing odor characteristic to aldehydes unpleasant (0.2 ppt) | Flavor judgment: number of panels who judged acid taste/acid smell quality the highest (0.5 ppt) | N: number of panels, irritation of acid reduced to give a mild acid taste (0.5 ppt) | X: number of panels, acid taste reduced but piercing odor characteristic to aldehydes unpleasant (0.5 ppt) | A: number of panels, acid taste/acid smell extreme and cause irritation (1 ppb) | B: number of panels, acid taste/acid smell slightly strong and slightly cause irritation (1 ppb) | Flavor judgment: number of panels who judged acid taste/acid smell quality the highest (1 ppb) | A: number of panels, acid taste/acid smell extreme and cause irritation (1 ppt) | Flavor judgment: number of panels who judged acid taste/acid smell quality the highest (1 ppt) | X: number of panels, acid taste reduced but piercing odor characteristic to aldehydes unpleasant (1 ppt) | A: number of panels, acid taste/acid smell extreme and cause irritation (5 ppt) | X: number of panels, acid taste reduced but piercing odor characteristic to aldehydes unpleasant (5 ppt) | A: number of panels, acid taste/acid smell extreme and cause irritation (10 ppb) | B: number of panels, acid taste/acid smell slightly strong and slightly cause irritation (10 ppb) | Flavor judgment: number of panels who judged acid taste/acid smell quality the highest (10 ppb) | A: number of panels, acid taste/acid smell extreme and cause irritation (20 ppt) | X: number of panels, acid taste reduced but piercing odor characteristic to aldehydes unpleasant (20 ppt) | A: number of panels, acid taste/acid smell extreme and cause irritation (50 ppb) | B: number of panels, acid taste/acid smell slightly strong and slightly cause irritation (50 ppb) | C: number of panels, acid taste/acid smell slightly unpleasant (50 ppb) | Flavor judgment: number of panels who judged acid taste/acid smell quality the highest (50 ppb) | A: number of panels, acid taste/acid smell extreme and cause irritation (100 ppt) | X: number of panels, acid taste reduced but piercing odor characteristic to aldehydes unpleasant (100 ppt) | A: number of panels, acid taste/acid smell extreme and cause irritation (500 ppt) | B: number of panels, acid taste/acid smell slightly strong and slightly cause irritation (500 ppt) | Flavor judgment: number of panels who judged acid taste/acid smell quality the highest (500 ppt)
2: C: number of panels, acid taste/acid smell slightly unpleasant (0.5 ppt) | C: number of panels, acid taste/acid smell slightly unpleasant (1 ppb) | B: number of panels, acid taste/acid smell slightly strong and slightly cause irritation (5 ppt) | Flavor judgment: number of panels who judged acid taste/acid smell quality the highest (5 ppt) | C: number of panels, acid taste/acid smell slightly unpleasant (10 ppb) | N: number of panels, irritation of acid reduced to give a mild acid taste (10 ppb) | B: number of panels, acid taste/acid smell slightly strong and slightly cause irritation (100 ppt) | C: number of panels, acid taste/acid smell slightly unpleasant (100 ppt) | X: number of panels, acid taste reduced but piercing odor characteristic to aldehydes unpleasant (500 ppt)
9: A: number of panels, acid taste/acid smell extreme and cause irritation (0.2 ppt)
1: B: number of panels, acid taste/acid smell slightly strong and slightly cause irritation (0.2 ppt) | B: number of panels, acid taste/acid smell slightly strong and slightly cause irritation (0.5 ppt) | N: number of panels, irritation of acid reduced to give a mild acid taste (1 ppt) | B: number of panels, acid taste/acid smell slightly strong and slightly cause irritation (20 ppt)
4: N: number of panels, irritation of acid reduced to give a mild acid taste (1 ppb) | X: number of panels, acid taste reduced but piercing odor characteristic to aldehydes unpleasant (1 ppb) | C: number of panels, acid taste/acid smell slightly unpleasant (500 ppt) | N: number of panels, irritation of acid reduced to give a mild acid taste (500 ppt)
10: A: number of panels, acid taste/acid smell extreme and cause irritation (0.005 ppt) | A: number of panels, acid taste/acid smell extreme and cause irritation (0.02 ppt) | A: number of panels, acid taste/acid smell extreme and cause irritation (0.1 ppt)
6: X: number of panels, acid taste reduced but piercing odor characteristic to aldehydes unpleasant (10 ppb) | N: number of panels, irritation of acid reduced to give a mild acid taste (20 ppt) | N: number of panels, irritation of acid reduced to give a mild acid taste (100 ppt)
5: N: number of panels, irritation of acid reduced to give a mild acid taste (5 ppt) | Flavor judgment: number of panels who judged acid taste/acid smell quality the highest (20 ppt)
7: A: number of panels, acid taste/acid smell extreme and cause irritation (0.5 ppt) | B: number of panels, acid taste/acid smell slightly strong and slightly cause irritation (1 ppt) | X: number of panels, acid taste reduced but piercing odor characteristic to aldehydes unpleasant (50 ppb)
3: C: number of panels, acid taste/acid smell slightly unpleasant (1 ppt) | C: number of panels, acid taste/acid smell slightly unpleasant (5 ppt) | C: number of panels, acid taste/acid smell slightly unpleasant (20 ppt) | N: number of panels, irritation of acid reduced to give a mild acid taste (50 ppb) | Flavor judgment: number of panels who judged acid taste/acid smell quality the highest (100 ppt)

CCCCC/C=C\C/C=C/C=C/C=O [(E,E,Z)-2,4,7-tridecatrienal]
6: X: number of panels, acid taste reduced but piercing odor characteristic to aldehydes unpleasant (10 ppb) | N: number of panels, irritation of acid reduced to give a mild acid taste (20 ppt)
10: A: number of panels, acid taste/acid smell extreme and cause irritation (0.005 ppt) | A: number of panels, acid taste/acid smell extreme and cause irritation (0.02 ppt) | A: number of panels, acid taste/acid smell extreme and cause irritation (0.1 ppt)
2: B: number of panels, acid taste/acid smell slightly strong and slightly cause irritation (0.2 ppt) | B: number of panels, acid taste/acid smell slightly strong and slightly cause irritation (0.5 ppt) | B: number of panels, acid taste/acid smell slightly strong and slightly cause irritation (5 ppt) | C: number of panels, acid taste/acid smell slightly unpleasant (10 ppb) | N: number of panels, irritation of acid reduced to give a mild acid taste (10 ppb) | N: number of panels, irritation of acid reduced to give a mild acid taste (50 ppb) | X: number of panels, acid taste reduced but piercing odor characteristic to aldehydes unpleasant (500 ppt)
4: N: number of panels, irritation of acid reduced to give a mild acid taste (1 ppb) | C: number of panels, acid taste/acid smell slightly unpleasant (1 ppt) | C: number of panels, acid taste/acid smell slightly unpleasant (20 ppt) | Flavor judgment: number of panels who judged acid taste/acid smell quality the highest (20 ppt) | C: number of panels, acid taste/acid smell slightly unpleasant (500 ppt) | N: number of panels, irritation of acid reduced to give a mild acid taste (500 ppt)
7: A: number of panels, acid taste/acid smell extreme and cause irritation (0.5 ppt) | N: number of panels, irritation of acid reduced to give a mild acid taste (100 ppt)
8: A: number of panels, acid taste/acid smell extreme and cause irritation (0.2 ppt) | X: number of panels, acid taste reduced but piercing odor characteristic to aldehydes unpleasant (50 ppb)
1: C: number of panels, acid taste/acid smell slightly unpleasant (0.5 ppt) | N: number of panels, irritation of acid reduced to give a mild acid taste (1 ppt)
5: B: number of panels, acid taste/acid smell slightly strong and slightly cause irritation (1 ppt) | N: number of panels, irritation of acid reduced to give a mild acid taste (5 ppt)
3: C: number of panels, acid taste/acid smell slightly unpleasant (1 ppb) | X: number of panels, acid taste reduced but piercing odor characteristic to aldehydes unpleasant (1 ppb) | C: number of panels, acid taste/acid smell slightly unpleasant (5 ppt) | Flavor judgment: number of panels who judged acid taste/acid smell quality the highest (5 ppt) | C: number of panels, acid taste/acid smell slightly unpleasant (100 ppt) | Flavor judgment: number of panels who judged acid taste/acid smell quality the highest (100 ppt)
0: B: number of panels, acid taste/acid smell slightly strong and slightly cause irritation (0.005 ppt) | C: number of panels, acid taste/acid smell slightly unpleasant (0.005 ppt) | Flavor judgment: number of panels who judged acid taste/acid smell quality the highest (0.005 ppt) | N: number of panels, irritation of acid reduced to give a mild acid taste (0.005 ppt) | X: number of panels, acid taste reduced but piercing odor characteristic to aldehydes unpleasant (0.005 ppt) | B: number of panels, acid taste/acid smell slightly strong and slightly cause irritation (0.02 ppt) | C: number of panels, acid taste/acid smell slightly unpleasant (0.02 ppt) | Flavor judgment: number of panels who judged acid taste/acid smell quality the highest (0.02 ppt) | N: number of panels, irritation of acid reduced to give a mild acid taste (0.02 ppt) | X: number of panels, acid taste reduced but piercing odor characteristic to aldehydes unpleasant (0.02 ppt) | B: number of panels, acid taste/acid smell slightly strong and slightly cause irritation (0.1 ppt) | C: number of panels, acid taste/acid smell slightly unpleasant (0.1 ppt) | Flavor judgment: number of panels who judged acid taste/acid smell quality the highest (0.1 ppt) | N: number of panels, irritation of acid reduced to give a mild acid taste (0.1 ppt) | X: number of panels, acid taste reduced but piercing odor characteristic to aldehydes unpleasant (0.1 ppt) | C: number of panels, acid taste/acid smell slightly unpleasant (0.2 ppt) | Flavor judgment: number of panels who judged acid taste/acid smell quality the highest (0.2 ppt) | N: number of panels, irritation of acid reduced to give a mild acid taste (0.2 ppt) | X: number of panels, acid taste reduced but piercing odor characteristic to aldehydes unpleasant (0.2 ppt) | Flavor judgment: number of panels who judged acid taste/acid smell quality the highest (0.5 ppt) | N: number of panels, irritation of acid reduced to give a mild acid taste (0.5 ppt) | X: number of panels, acid taste reduced but piercing odor characteristic to aldehydes unpleasant (0.5 ppt) | A: number of panels, acid taste/acid smell extreme and cause irritation (1 ppb) | B: number of panels, acid taste/acid smell slightly strong and slightly cause irritation (1 ppb) | Flavor judgment: number of panels who judged acid taste/acid smell quality the highest (1 ppb) | A: number of panels, acid taste/acid smell extreme and cause irritation (1 ppt) | Flavor judgment: number of panels who judged acid taste/acid smell quality the highest (1 ppt) | X: number of panels, acid taste reduced but piercing odor characteristic to aldehydes unpleasant (1 ppt) | A: number of panels, acid taste/acid smell extreme and cause irritation (5 ppt) | X: number of panels, acid taste reduced but piercing odor characteristic to aldehydes unpleasant (5 ppt) | A: number of panels, acid taste/acid smell extreme and cause irritation (10 ppb) | B: number of panels, acid taste/acid smell slightly strong and slightly cause irritation (10 ppb) | Flavor judgment: number of panels who judged acid taste/acid smell quality the highest (10 ppb) | A: number of panels, acid taste/acid smell extreme and cause irritation (20 ppt) | B: number of panels, acid taste/acid smell slightly strong and slightly cause irritation (20 ppt) | X: number of panels, acid taste reduced but piercing odor characteristic to aldehydes unpleasant (20 ppt) | A: number of panels, acid taste/acid smell extreme and cause irritation (50 ppb) | B: number of panels, acid taste/acid smell slightly strong and slightly cause irritation (50 ppb) | C: number of panels, acid taste/acid smell slightly unpleasant (50 ppb) | Flavor judgment: number of panels who judged acid taste/acid smell quality the highest (50 ppb) | A: number of panels, acid taste/acid smell extreme and cause irritation (100 ppt) | B: number of panels, acid taste/acid smell slightly strong and slightly cause irritation (100 ppt) | X: number of panels, acid taste reduced but piercing odor characteristic to aldehydes unpleasant (100 ppt) | A: number of panels, acid taste/acid smell extreme and cause irritation (500 ppt) | B: number of panels, acid taste/acid smell slightly strong and slightly cause irritation (500 ppt) | Flavor judgment: number of panels who judged acid taste/acid smell quality the highest (500 ppt)
